Experiments:
HeLa T-Rex cells = test: Gamma-H2AX In-Cell Western assay (doxorubicin-induced DNA damage); type: cell-based; settings: Homo sapiens, HeLa; 30 minutes pretreatment, then 1 μM doxorubicin for 2 hours; read-out: IC50, suppression of doxorubicin-induced γH2AX signal
Description: In-Cell Western analysis was carried out as follows. HeLa T-Rex cells were seeded at the cell density of 15 × 10^3 cells per well in black 96-well plates (Greiner Bio-one Vacuette, St Gallen, Switzerland). The day post-seeding, cells were pretreated with increasing concentrations of either ICRF-193, QAP 1 or vehicle (DMSO) for 30 minutes followed by a 2 hours treatment with 1 μM of doxorubicin, or were only treated with the same concentrations of ICRF-193, QAP 1 or vehicle (DMSO) for 2 hours. Treatments were done in triplicate. […] Finally, cells were washed 4 times with 50 μl per well of PBS containing 0.1% Tween-20 for 3 minutes, liquid was removed and plates were kept at 4°C until reading. γH2AX signals were read using the LI-COR Odyssey Infrared Imager with the Odyssey v1.1 software using the 800 nm channel. Blank values correspond to non-specific γH2AX signal detected in wells without primary antibody staining. […] The resulting values for each sample were normalized to the DNA quantity by measuring the corresponding TO-PRO-3 iodide signals. The TO-PRO-3 iodine signals were detected by using the 700 nm channel. The percentage of γH2AX signal was determined for each concentration of ICRF193 and QAP 1 with or without doxorubicin treatment by setting the value for the treatment with vehicle and 1 μM doxorubicin to 100%. […]

[1] = test system: panel of serine/threonine/tyrosine protein kinases; test: Kinase selectivity profiling, standard panel of kinases; type: biochemical; settings: in vitro, versus topoisomerase II
Text: Based on homology structural models of the target, a purine scaffold was designed interactively using the Macromodel modeling software. The designed purine scaffold was subsequently used as a substructure query to search the Novartis compound collection. Around 50 molecules were retrieved in this manner and screened in an ATPase assay using purified full length tagged human topoisomerase II alpha. […] Subsequently, we carried out kinetic analysis with QAP 1 in order to corroborate the mode of action. […] The data were analyzed by non-linear regression analysis using the equations corresponding to competitive, uncompetitive, and mixed inhibition (see Methods) and a statistical analysis (F-test; p ≤ 0.05) was carried out to identify the best model. […] A linearized representation (Eady-Hofstee) of one of these experiments is depicted in Figure 1D. To confirm the mode of action of QAP 1, inhibition studies were also carried out in the presence of different concentration of the inhibitor at different ATP concentrations and the IC50 values were determined. […] Next, QAP 1 was tested against a panel of kinases in a radiometric assay. With the exception of subtle inhibition of the Ret and c-Src tyrosine kinases no effect of the compound was observed on other kinases in the panel, even at the highest concentration tested (Table 1). […]

With CCc1nc2nc(Nc3ccc4nc(OCCN5CCOCC5)ccc4c3)nc(NC(C)(C)C)c2[nH]1 [QAP 1] the IC50 (HeLa T-Rex cells) was about 1100 nM and the “selectivity over a standard panel of kinases” value [1] was “greater than 10 fold”.
